Several values for one entry are separate records, joined by “and”; a condition that tells them apart may be missing. Equal values may be shown once. Square brackets hold non-standard residues; d marks the D form. Ends that are not written are not given here.
How the values were obtained:
[1] = tested on: experimental autoimmune encephalitis; experiment: Experimental autoimmune encephalitis (EAE) model; assay type: in vivo, mouse
[2] = biological target: T1, staphylococcal enterotoxin B (SEB) (Staphylococcus aureus, UniProt P01552); settings: previously shown (3); cited from earlier work
[3] = biological target: T1, staphylococcal enterotoxin B (SEB); settings: previously shown (3); cited from earlier work; remark: listed apart in the source
signaling through CD3 = experiment: αCD3-induced cytokine expression in human PBMC (ELISA); assay type: cell-based; settings: αCD3 alone, 10 μg/ml peptide
Description: (§1) Peripheral blood mononuclear cells (PBMC) from healthy human donors were separated on Ficoll Paque (Amersham), washed twice with 50 ml of RPMI 1640 medium, re-suspended at a density of 4×10^6 cells/ml and cultured in this medium supplemented with 2% fetal calf serum, 2 mM glutamine, 10 mM Minimum Essential Medium (MEM) nonspecific amino acids, […], 10 mM Hepes pH 7.2, 5×10^−5 M 2-mercaptoethanol, 100 u/ml penicillin, 100 μg/ml streptomycin and 5 μg/ml nystatin. Mouse anti-human monoclonal antibodies αCD3 (clone UCHT1; 100 ng/ml) and αCD28 (clone 37407; 2.5 μg/ml) (both from R&D Systems) were used as inducers. Cytokines in culture medium were determined with Quantikine ELISA kits (R&D Systems) according to the manufacturer's instructions.

CD28 = biological target: T2, CD28 (Homo sapiens, UniProt P10747); experiment: αCD3/αCD28-induced cytokine expression in human PBMC (ELISA); assay type: cell-based; settings: αCD3/αCD28, 10 μg/ml peptide
T2 construct: endogenous in cells; host or cells: human PBMC
Description: as §1

human PBMC = experiment: Cytokine induction by peptides alone in human PBMC (ELISA); assay type: cell-based; settings: 10 μg/ml peptide, no inducer
Description: as §1

human IgG = experiment: Surface plasmon resonance, human IgG control on immobilized peptide; assay type: binding; settings: SPR, studied in parallel
Description: Peptides were diluted to 10-200 μg/ml in 10 mM Sodium (Na) acetate pH 4.0 and immobilized on a CM5 sensor chip (BIAcore) using an amine-thiol coupling kit (BIAcore), respectively; the immobilized amounts were 500-1,000 resonance units. Analytes were injected at 20 μl/min in 25 mM HEPES pH 7.4, 150 mM NaCl, 3.4 mM EDTA, and 0.005% surfactant P20 under conditions showing no mass transport limitation. Regeneration was with 50 mM phosphoric acid. Kinetic analyses were performed at 25° C. in a BIAcore 3000 instrument, deducting the signal from the control flow cell from the binding signal. Analyte curves were run in duplicate; representative results are shown. Human IgG (Jackson Laboratories) served as control. Fusion of the IgG1-Fc domain to the 152-amino-acid extracellular domain of CD28 was performed as described below.

adjuvant arthritis = experiment: Adjuvant arthritis model; settings: rat, in vivo
[4] = tested on: collagen-induced arthritis; experiment: Collagen-induced arthritis model; assay type: in vivo, mouse; settings: mice
[5] = FIG. 11A, daily from day 1, solumedrol 20 mg/kg, p2TB 50 μg, pe12-pal 100 μg
[6] = independent experiment FIG. 11B-D, daily, solumedrol 20 mg/kg, p2TB 50 μg, p2TB-pal 50 μg, pe12-pal 100 μg

| Compound | reduction of cumulative clinical score [1, 5] [%] | reduction of cumulative clinical score [1, 6] [%] | αCD3-mediated induction of IFN-γ (signaling through CD3) | αCD3-mediated induction of IL2 (signaling through CD3) | αCD3-mediated induction of TNF-α (signaling through CD3) | signaling through CD28 (IFN-γ, IL2, TNF-α secretion) (CD28) | Th1 cytokine response induced by peptide alone (human PBMC) | affinity for IgG (human IgG) | other results |
| --- | --- | --- | --- | --- | --- | --- | --- | --- | --- |
| C[C@H]1C[C@@H]2[C@H]([C@@H](O)C[C@@]3(C)[C@H]2CC[C@]3(O)C(=O)COC(=O)CCC(=O)O)[C@@]2(C)C=CC(=O)C=C12 [solumedrol, reference compound] | 50 | 50 |  |  |  |  |  |  |  |
| (D-A)ASMDYPVL(D-A) ([dA]ASMDYPVL[dA]) |  |  |  |  |  |  |  |  | ability to bind directly to SEB after scrambling of p2TA sequence [2]: strongly impair; ability to protect mice from lethal SEB challenge after scrambling of p2TA sequence [3]: strongly impair |
| (D-A)PAVVLASS(D-A) ([dA]PAVVLASS[dA]) [p2TB, CTLA-4 homodimer interface peptide abutted by D-Ala at both termini] |  |  | did not inhibit | did not inhibit | did not inhibit | inhibit signaling through CD28 | do not induce a significant Th1 cytokine response | none of the peptides showed affinity for IgG |  |
| (D-A)SHFTHNRHGHST(D-A) ([dA]SHFTHNRHGHST[dA]) [pe12] |  |  | did not inhibit | did not inhibit | did not inhibit | inhibit signaling through CD28 | do not induce a significant Th1 cytokine response | none of the peptides showed affinity for IgG | disease symptoms after termination of therapy on day 15 (adjuvant arthritis): leveled off and even showed a progressive further decline; cumulative reduction of disease symptoms (adjuvant arthritis; iv): 41%; disease symptoms during treatment, up to day 15 (adjuvant arthritis; iv): did not exhibit inhibition of symptoms |
| (palmitoyl-lysine)PAVVLASS(D-A) (PAVVLASS[dA]; not fully specified (N-terminus)) [p2TB-pal] |  |  |  |  |  |  |  |  | reduction of cumulative disease symptoms ([4]; 100 μg once every 3 days starting on day 25): 34%; reduction of cumulative clinical score ([1]; mouse, in vivo): 41% and 31% and 38% |
| (palmitoyl-lysine)SHFTHNRHGHST(D-A) (SHFTHNRHGHST[dA]; not fully specified (N-terminus)) [pe12-pal] | 63 | 42 |  |  |  |  |  |  | amelioration of disease symptoms ([4]; 150 μg once every 3 days from disease onset): 31%; amelioration of disease symptoms ([4]; 200 μg once every 5 days from disease onset): 27%; reduction of cumulative clinical score ([1]; independent experiment FIG. 11B-D, once every 3 days, p2TB 100 μg, p2TB-pal 100 μg, pe12-pal 150 μg): 48% |

— patent US10280209B2 (YISSUM RESEARCH DEVELOPMENT COMPANY OF THE HEBREW …, priority 2013, dated 2019)
